Assay results taken from patent US20250136595A1, “ACYLATED HETEROCYCLIC QUINAZOLINE DERIVATIVES AS INHIBITORS OF ERBB2” (Enliven Inc., priority 2022, published 2025).

Columns and labels:
[1] = target: Ba/F3 ERBB2 YVMA (Homo sapiens, UniProt P04626, DUP772-775, cells depend on it); assay: Cell viability assay (CellTiter Glo) in Ba/F3 cells engineered to express ERBB2 YVMA; type: cell-based, mouse; details: Ba/F3 cells expressing human ERBB2 YVMA mutant, 72 hours, % viability, read-out: Ba/F3 ERBB2 YVMA IC50
Procedure, shortened: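 IL-3-independent mouse Ba/F3 line stably transduced with human ERBB2 YVMA, seeded at 3000 cells/well, exposed to serially diluted compound (≤0.1% DMSO) for 72 h at 37° C. ATP read by CellTiter Glo luminescence, normalised to DMSO and media-only controls; sigmoidal nonlinear regression fit.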

[2] = target: T1, phosphorylated ERBB2 (pERBB2) (Homo sapiens, UniProt P04626); assay: Detection of phosphorylated ERBB2 (pERBB2) by ELISA in BT-474 cells; type: cell-based; details: four hour incubation with compound
T1 construct: endogenous in cells; host or cells: BT-474
Procedure, shortened: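 BT-474 cells treated 4 h at 37 °C, 5% CO2 with four-fold dilutions (10 μM to 0.01 nM final). Lysates analysed by ELISA for pERBB2, TMB read at OD 450 nm. % relative activity normalised to no-cell (low) and 0.1% DMSO-treated (high) controls.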

[3] = target: T2, phosphorylated EGFR (pEGFR) (Homo sapiens, UniProt P00533); assay: Detection of phosphorylated EGFR (pEGFR) in EGF-stimulated A431 cells (AlphaLISA); type: cell-based; details: A431 cells (10% FBS), 4 hours incubation, EGF 30 ng/mL for 10 minutes
T2 construct: performed to measure phosphorylated EGFR levels using A431 cells; endogenous in cells; host or cells: A431
Procedure, shortened: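 Cells in 10% FBS treated with compound 4 h at 37° C., then stimulated 10 min with 30 ng/mL EGF, lysed, and pEGFR measured by AlphaLISA. Inhibition normalized to DMSO and staurosporine controls; IC50 from four-parameter logistic fit.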

Sequence of Ba/F3 ERBB2 YVMA (P04626 with tags, fused parts or gaps DUP772-775): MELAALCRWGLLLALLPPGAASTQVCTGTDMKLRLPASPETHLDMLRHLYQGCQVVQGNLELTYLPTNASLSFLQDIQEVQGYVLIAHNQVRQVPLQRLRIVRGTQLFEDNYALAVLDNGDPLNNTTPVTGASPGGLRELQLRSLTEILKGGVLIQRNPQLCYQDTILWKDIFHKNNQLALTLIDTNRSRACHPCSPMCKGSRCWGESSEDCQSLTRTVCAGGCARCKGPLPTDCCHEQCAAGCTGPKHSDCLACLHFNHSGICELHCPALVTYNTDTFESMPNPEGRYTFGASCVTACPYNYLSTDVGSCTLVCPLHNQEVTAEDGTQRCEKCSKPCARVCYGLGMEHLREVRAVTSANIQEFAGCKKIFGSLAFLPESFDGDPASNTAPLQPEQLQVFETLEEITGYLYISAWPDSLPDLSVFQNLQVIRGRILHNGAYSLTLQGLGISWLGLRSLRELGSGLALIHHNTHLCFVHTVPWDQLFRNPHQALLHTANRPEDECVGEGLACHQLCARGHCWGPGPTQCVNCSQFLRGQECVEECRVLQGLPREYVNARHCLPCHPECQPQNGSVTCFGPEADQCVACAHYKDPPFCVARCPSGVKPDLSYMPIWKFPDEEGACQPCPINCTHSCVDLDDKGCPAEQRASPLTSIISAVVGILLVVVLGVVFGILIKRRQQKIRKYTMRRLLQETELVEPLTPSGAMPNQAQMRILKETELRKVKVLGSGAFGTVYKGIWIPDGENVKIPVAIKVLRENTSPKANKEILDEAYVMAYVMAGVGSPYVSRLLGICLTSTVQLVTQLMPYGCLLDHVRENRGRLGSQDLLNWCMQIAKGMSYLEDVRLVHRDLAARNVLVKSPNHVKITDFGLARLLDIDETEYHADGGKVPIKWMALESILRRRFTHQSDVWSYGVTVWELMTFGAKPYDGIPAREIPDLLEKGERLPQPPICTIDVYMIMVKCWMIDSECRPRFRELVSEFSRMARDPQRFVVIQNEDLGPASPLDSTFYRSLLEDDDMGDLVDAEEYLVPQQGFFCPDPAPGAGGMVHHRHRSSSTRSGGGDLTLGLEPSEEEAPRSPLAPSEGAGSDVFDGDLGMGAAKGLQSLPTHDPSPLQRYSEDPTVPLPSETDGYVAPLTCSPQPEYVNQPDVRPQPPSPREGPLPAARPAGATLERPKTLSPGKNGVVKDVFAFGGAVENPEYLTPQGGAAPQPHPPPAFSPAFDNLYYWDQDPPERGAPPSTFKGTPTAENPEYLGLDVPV
T2 sequence (P00533 25-1210): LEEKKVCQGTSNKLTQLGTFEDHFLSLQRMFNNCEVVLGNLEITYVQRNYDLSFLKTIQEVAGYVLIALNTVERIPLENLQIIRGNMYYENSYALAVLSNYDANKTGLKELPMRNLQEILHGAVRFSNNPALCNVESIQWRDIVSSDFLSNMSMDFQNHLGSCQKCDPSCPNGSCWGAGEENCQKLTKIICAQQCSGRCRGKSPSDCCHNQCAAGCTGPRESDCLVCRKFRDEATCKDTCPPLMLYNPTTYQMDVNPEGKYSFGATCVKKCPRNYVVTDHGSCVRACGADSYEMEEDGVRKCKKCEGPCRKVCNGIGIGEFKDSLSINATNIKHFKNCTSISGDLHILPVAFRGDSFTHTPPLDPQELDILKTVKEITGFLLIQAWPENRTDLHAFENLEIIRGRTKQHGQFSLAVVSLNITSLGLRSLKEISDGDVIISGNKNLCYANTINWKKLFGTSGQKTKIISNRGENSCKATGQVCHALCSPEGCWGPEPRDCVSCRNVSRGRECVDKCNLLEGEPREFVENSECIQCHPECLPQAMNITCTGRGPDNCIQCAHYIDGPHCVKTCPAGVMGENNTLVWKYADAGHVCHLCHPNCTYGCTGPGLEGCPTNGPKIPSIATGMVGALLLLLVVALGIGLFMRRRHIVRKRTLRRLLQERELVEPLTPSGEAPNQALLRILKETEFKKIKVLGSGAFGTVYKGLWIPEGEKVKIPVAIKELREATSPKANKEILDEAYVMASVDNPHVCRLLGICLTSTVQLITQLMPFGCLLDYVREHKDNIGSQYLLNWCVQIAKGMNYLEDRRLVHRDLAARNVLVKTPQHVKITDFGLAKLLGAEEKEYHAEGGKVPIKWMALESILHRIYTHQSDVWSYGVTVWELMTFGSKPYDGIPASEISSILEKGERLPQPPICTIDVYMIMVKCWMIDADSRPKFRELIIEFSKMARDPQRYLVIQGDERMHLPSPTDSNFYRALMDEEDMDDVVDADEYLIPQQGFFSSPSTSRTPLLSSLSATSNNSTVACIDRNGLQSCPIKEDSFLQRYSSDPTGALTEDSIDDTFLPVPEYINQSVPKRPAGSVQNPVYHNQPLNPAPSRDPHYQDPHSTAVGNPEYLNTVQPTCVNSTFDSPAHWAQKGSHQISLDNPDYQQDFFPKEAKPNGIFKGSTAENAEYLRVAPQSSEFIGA
T1 sequence (P04626 23-1255): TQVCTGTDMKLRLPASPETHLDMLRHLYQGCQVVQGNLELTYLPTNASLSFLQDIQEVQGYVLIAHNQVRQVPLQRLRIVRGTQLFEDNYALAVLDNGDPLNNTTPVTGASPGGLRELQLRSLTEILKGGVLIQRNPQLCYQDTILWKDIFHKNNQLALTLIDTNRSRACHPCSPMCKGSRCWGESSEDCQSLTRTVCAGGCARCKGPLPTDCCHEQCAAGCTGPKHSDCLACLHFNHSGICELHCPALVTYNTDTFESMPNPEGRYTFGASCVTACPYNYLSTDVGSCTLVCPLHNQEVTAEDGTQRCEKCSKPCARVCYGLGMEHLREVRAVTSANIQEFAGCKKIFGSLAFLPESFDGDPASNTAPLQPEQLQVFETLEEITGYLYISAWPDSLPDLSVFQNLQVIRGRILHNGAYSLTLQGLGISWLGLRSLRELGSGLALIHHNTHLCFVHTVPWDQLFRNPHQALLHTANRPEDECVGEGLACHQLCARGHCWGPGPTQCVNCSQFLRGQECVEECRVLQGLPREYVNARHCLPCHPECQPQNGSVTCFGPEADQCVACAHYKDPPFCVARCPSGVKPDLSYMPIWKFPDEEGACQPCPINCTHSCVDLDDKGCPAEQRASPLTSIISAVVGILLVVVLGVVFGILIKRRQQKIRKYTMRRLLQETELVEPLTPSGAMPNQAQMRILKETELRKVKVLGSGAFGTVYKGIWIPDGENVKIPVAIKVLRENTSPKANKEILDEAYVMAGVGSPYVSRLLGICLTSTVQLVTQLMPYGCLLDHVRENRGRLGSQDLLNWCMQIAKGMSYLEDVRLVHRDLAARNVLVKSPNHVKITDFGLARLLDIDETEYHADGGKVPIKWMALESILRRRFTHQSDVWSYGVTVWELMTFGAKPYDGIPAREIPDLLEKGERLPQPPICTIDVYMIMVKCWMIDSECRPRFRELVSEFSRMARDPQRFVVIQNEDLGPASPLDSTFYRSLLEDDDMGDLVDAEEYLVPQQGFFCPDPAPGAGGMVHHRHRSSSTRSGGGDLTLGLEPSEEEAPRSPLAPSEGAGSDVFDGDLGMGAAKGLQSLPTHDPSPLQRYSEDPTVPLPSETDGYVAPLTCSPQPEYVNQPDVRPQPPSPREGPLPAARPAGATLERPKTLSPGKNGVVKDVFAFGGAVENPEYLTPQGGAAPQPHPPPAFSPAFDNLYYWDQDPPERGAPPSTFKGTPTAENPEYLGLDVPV

Row | IC50 [2] | IC50 [3] | Structure (SMILES) | GI50 [1]
1 | 45.9 nM | > 10000 nM | C=CC(=O)N1CCN(c2ccc3ncnc(Nc4ccc(Oc5ccn6ncnc6c5)c(C)c4)c3c2F)C(C)C1 (stereo not drawn) [Compound 114, 1-(4-{5-fluoro-4-[(3-methyl-4-{[1,2,4]triazolo[1,5-a]pyridin-7-yloxy}phenyl)amino]quinazolin-6-yl}-3-methylpiperazin-1-yl)prop-2-en-1-one] | 53.9 nM
2 | 16.9 nM | 4290 nM | C=CC(=O)N1CCN(c2ncc3ncnc(Nc4ccc(Cc5ccn6ncnc6c5)c(C)c4)c3n2)CC1 [Compound 115, 1-(4-(8-((4-([1,2,4]triazolo[1,5-a]pyridin-7-ylmethyl)-3-methylphenyl)amino)pyrimido[5,4-d]pyrimidin-2-yl)piperazin-1-yl)prop-2-en-1-one] | 9.29 nM
3 | 21.9 nM | 1790 nM | Cc1cc(Nc2ncnc3ccc(N4CCN(C(=O)/C=C/CN(C)C)[C@H](C)C4)nc23)ccc1Oc1ccn2ncnc2c1 [Compound 116, (R,E)-1-(4-(4-((4-([1,2,4]triazolo[1,5-a]pyridin-7-yloxy)-3-methylphenyl)amino)pyrido[3,2-d]pyrimidin-6-yl)-2-methylpiperazin-1-yl)-4-(dimethylamino)but-2-en-1-one] | 10.1 nM
4 | 24.5 nM | > 10000 nM | Cc1cc(Nc2ncnc3ccc(N4CCN(C(=O)/C=C/CN(C)C)[C@H](C)C4)nc23)ccc1Cc1ccn2ncnc2c1 [Compound 117, (R,E)-1-(4-(4-((4-([1,2,4]triazolo[1,5-a]pyridin-7-ylmethyl)-3-methylphenyl)amino)pyrido[3,2-d]pyrimidin-6-yl)-2-methylpiperazin-1-yl)-4-(dimethylamino)but-2-en-1-one] | 25.1 nM
5 | 11.5 nM | 107 nM | C=CC(=O)N1CCN(c2ccc3ncnc(Nc4ccc(Oc5ccn6ncnc6c5)c(C)c4)c3n2)CC12CC2 [Compound 118, 1-(7-{4-[(3-methyl-4-{[1,2,4]triazolo[1,5-a]pyridin-7-yloxy}phenyl)amino]pyrido[3,2-d]pyrimidin-6-yl}-4,7-diazaspiro[2.5]octan-4-yl)prop-2-en-1-one] | 7.76 nM
6 | 26 nM | 97 nM | C=CC(=O)N1CCN(c2ccc3ncnc(Nc4ccc(Oc5ccc6scnc6c5)c(C)c4)c3n2)CC1 [Compound 119, 1-(4-(4-((4-(benzo[d]thiazol-5-yloxy)-3-methylphenyl)amino)pyrido[3,2-d]pyrimidin-6-yl)piperazin-1-yl)prop-2-en-1-one] | 4.67 nM
7 | 36.5 nM | 2080 nM | Cc1cc(Nc2ncnc3ccc(N4CCN(C(=O)/C=C/CN(C)C)CC4)nc23)ccc1Cc1ccc2c(c1)ncn2C [Compound 120, (E)-4-(dimethylamino)-1-(4-(4-((3-methyl-4-((1-methyl-1H-benzo[d]imidazol-5-yl)methyl)phenyl)amino)pyrido[3,2-d]pyrimidin-6-yl)piperazin-1-yl)but-2-en-1-one] | 7.1 nM
8 | 55.9 nM | 6740 nM | Cc1cc(Nc2ncnc3ccc(N4CCN(C(=O)/C=C/CN(C)C)[C@H](C)C4)nc23)ccc1Cc1ccc2c(c1)ncn2C [Compound 121, (R,E)-4-(dimethylamino)-1-(2-methyl-4-(4-((3-methyl-4-((1-methyl-1H-benzo[d]imidazol-5-yl)methyl)phenyl)amino)pyrido[3,2-d]pyrimidin-6-yl)piperazin-1-yl)but-2-en-1-one] | 9.08 nM
9 | 53.2 nM | > 10000 nM | Cc1cc(Nc2ncnc3cnc(N4CCN(C(=O)/C=C/CN(C)C)[C@H](C)C4)nc23)ccc1Cc1ccn2ncnc2c1 [Compound 122, (R,E)-1-(4-(8-((4-([1,2,4]triazolo[1,5-a]pyridin-7-ylmethyl)-3-methylphenyl)amino)pyrimido[5,4-d]pyrimidin-2-yl)-2-methylpiperazin-1-yl)-4-(dimethylamino)but-2-en-1-one] | 32.4 nM
10 | 53 nM | 1270 nM | C=CC(=O)N1C2CCC1CN(c1ccc3ncnc(Nc4ccc(Cc5ccc6c(c5)ncn6C)c(C)c4)c3n1)C2 [Compound 123, 1-(3-(4-((3-methyl-4-((1-methyl-1H-benzo[d]imidazol-5-yl)methyl)phenyl)amino)pyrido[3,2-d]pyrimidin-6-yl)-3,8-diazabicyclo[3.2.1]octan-8-yl)prop-2-en-1-one] | 9.61 nM
11 | 138 nM | 2580 nM | C=CC(=O)N1CCN(c2ccc3ncnc(Nc4ccc(Oc5ccc(CC)nc5)c(C)c4)c3n2)CC1 [Compound 124, 1-(4-(4-((4-((6-ethylpyridin-3-yl)oxy)-3-methylphenyl)amino)pyrido[3,2-d]pyrimidin-6-yl)piperazin-1-yl)prop-2-en-1-one] | 35.9 nM
12 | 95.9 nM | > 10000 nM | C=CC(=O)N1CCN(c2ccc3ncnc(Nc4ccc(Cc5ccc6c(c5)ncn6C)c(C)c4)c3c2)[C@@H](C)C1 [Compound 125, (S)-1-(3-methyl-4-(4-((3-methyl-4-((1-methyl-1H-benzo[d]imidazol-5-yl)methyl)phenyl)amino)quinazolin-6-yl)piperazin-1-yl)prop-2-en-1-one] | 61.2 nM
13 | 145 nM | > 10000 nM | Cc1cc(Nc2ncnc3ccc(N4CCN(C(=O)/C=C/CN(C)C)C[C@@H]4C)nc23)ccc1Cc1ccc2c(c1)ncn2C [Compound 126, (S,E)-4-(dimethylamino)-1-(3-methyl-4-(4-((3-methyl-4-((1-methyl-1H-benzo[d]imidazol-5-yl)methyl)phenyl)amino)pyrido[3,2-d]pyrimidin-6-yl)piperazin-1-yl)but-2-en-1-one] | 29.6 nM
14 | 17.5 nM | 2150 nM | C=CC(=O)N1C2CCC1CN(c1ccc3ncnc(Nc4ccc(Cc5ccn6ncnc6c5)c(C)c4)c3n1)C2 [Compound 127, 1-(3-(4-((4-([1,2,4]triazolo[1,5-a]pyridin-7-ylmethyl)-3-methylphenyl)amino)pyrido[3,2-d]pyrimidin-6-yl)-3,8-diazabicyclo[3.2.1]octan-8-yl)prop-2-en-1-one] | 4.37 nM
15 | 19.8 nM | 530 nM | C=CC(=O)N1CC2CC1CN2c1ccc2ncnc(Nc3ccc(Cc4ccn5ncnc5c4)c(C)c3)c2n1 (stereo not drawn) [Compound 128, 1-(5-(4-((4-([1,2,4]triazolo[1,5-a]pyridin-7-ylmethyl)-3-methylphenyl)amino)pyrido[3,2-d]pyrimidin-6-yl)-2,5-diazabicyclo[2.2.1]heptan-2-yl)prop-2-en-1-one] | 7.45 nM
16 | 21.5 nM | 317 nM | C=CC(=O)N1CCN(c2ccc3ncnc(Nc4ccc(Cc5ccn6ncnc6c5)c(C)c4)c3n2)CC12CC2 [Compound 129, 1-(7-{4-[(3-methyl-4-{[1,2,4]triazolo[1,5-a]pyridin-7-ylmethyl}phenyl)amino]pyrido[3,2-d]pyrimidin-6-yl}-4,7-diazaspiro[2.5]octan-4-yl)prop-2-en-1-one] | 5.32 nM
17 | 13 nM | 1480 nM | C=CC(=O)N1CCN(c2ncc3ncnc(Nc4ccc(Oc5ccc6c(c5)ncn6C)c(C)c4)c3n2)CC1 [Compound 130, 1-(4-(8-((3-methyl-4-((1-methyl-1H-benzo[d]imidazol-5-yl)oxy)phenyl)amino)pyrimido[5,4-d]pyrimidin-2-yl)piperazin-1-yl)prop-2-en-1-one] | 15 nM
18 | 30 nM | 2390 nM | C=CC(=O)N1CCN(c2ccc3ncnc(Nc4ccc(Cc5ccn6ncnc6c5)c(C)c4)c3n2)CC1(C)C [Compound 131, 1-(4-(4-((4-([1,2,4]triazolo[1,5-a]pyridin-7-ylmethyl)-3-methylphenyl)amino)pyrido[3,2-d]pyrimidin-6-yl)-2,2-dimethylpiperazin-1-yl)prop-2-en-1-one] | 20 nM
